Laboratory results as given in patent publication US10858360B2, “Tricyclic gyrase inhibitors” (priority 2011, dated 2020).
≈ marks a conversion by molar mass, not a printed value.

Legend:
[1] = system: S. aureus ATCC 13709; assay: MIC, S. aureus ATCC 13709 (Alamar Blue broth microdilution); format: cell-based; details: Alamar Blue read after overnight incubation at 35° C.; for MIC: Staphylococcus aureus, ATCC13709, S. aureus; for MIC Sa: S. aureus
[2] = system: E. coli ATCC 25922; assay: MIC, E. coli ATCC 25922; format: cell-based; details: Alamar Blue read after overnight incubation at 35° C.; for MIC: Escherichia coli, ATCC25922, E. coli; for MIC Ec: E. coli

## CNc1cc(F)cc2c1[nH]c1nc(Oc3cncnc3)nc(N3CCC4(CC4N)C3)c12 (centres unmarked) [4.003]
[1]
  MIC: ≤ 0.5 µg/mL
[2]
  MIC: ≤ 0.5 µg/mL

## CNc1cc(F)cc2c1[nH]c1nc(Oc3cncnc3)nc(N3CC4C(CN)C4C3)c12 (centres unmarked) [4.004]
[1]
  MIC: ≤ 0.5 µg/mL
[2]
  MIC: 2 µg/mL (≈ 4.76 µM)

## CNc1cc(F)cc2c1[nH]c1nc(Oc3cncnc3)nc(N3CC4CC4(N)C3)c12 (centres unmarked) [4.005]
[1]
  MIC: ≤ 0.5 µg/mL
[2]
  MIC: ≤ 0.5 µg/mL

## CNc1cc(F)cc2c1[nH]c1nc(Oc3cncnc3)nc(N3C[C@@H](N)C4(CC4)C3)c12 [4.006]
[1]
  MIC: ≤ 0.5 µg/mL
[2]
  MIC: 1 µg/mL (≈ 2.38 µM)

## CNc1cc(F)cc2c1[nH]c1nc(Oc3cncnc3)nc(N3CCC(N)C3)c12 (centres unmarked) [4.007]
[1]
  MIC Sa: ≤0.5 µg/mL
[2]
  MIC Ec: ≤0.5 µg/mL

## CNc1cc(F)cc2c1[nH]c1nc(Oc3cncnc3)nc(N3CC4CNC4C3)c12 (centres unmarked) [4.008]
[1]
  MIC: ≤ 0.5 µg/mL
[2]
  MIC: ≤ 0.5 µg/mL

## CNc1cc(F)cc2c1[nH]c1nc(Oc3cncnc3)nc(N3C[C@@H]4[C@H](C3)[C@@]4(N)C(N)=O)c12 [4.009]
[1]
  MIC: ≤ 0.5 µg/mL
[2]
  MIC: > 64 µg/mL

## CNc1cc(F)cc2c1[nH]c1nc(Oc3cncnc3)nc(N3CC4C(N)C4C3)c12 (centres unmarked) [4.010]
[1]
  MIC Sa: ≤0.5 µg/mL
[2]
  MIC Ec: ≤0.5 µg/mL

## CNc1cc(F)cc2c1[nH]c1nc(Oc3cncnc3)nc(N3C[C@H](N)C4(CC4)C3)c12 [4.011]
[1]
  MIC: ≤ 0.5 µg/mL
[2]
  MIC: ≤ 0.5 µg/mL

## CNc1cc(F)cc2c1[nH]c1nc(Oc3cncnc3)nc(N3CC[C@]4(C[C@@H]4N)C3)c12 [4.013]
[1]
  MIC: ≤ 0.5 µg/mL
[2]
  MIC: ≤ 0.5 µg/mL

## CNc1cc(F)cc2c1[nH]c1nc(Oc3cncnc3)nc(N3CC[C@@]4(C[C@H]4N)C3)c12 [4.014]
[1]
  MIC: ≤ 0.5 µg/mL
[2]
  MIC: 1 µg/mL (≈ 2.38 µM)

## CNc1cc(F)cc2c1[nH]c1nc(Oc3cncnc3)nc(N3CC4CNC(C4)C3)c12 (centres unmarked) [4.015]
[1]
  MIC: ≤ 0.5 µg/mL
[2]
  MIC: 1 µg/mL (≈ 2.38 µM)

## CNc1cc(F)cc2c1[nH]c1nc(Oc3cncnc3)nc(N3CC4CCC(N)C4C3)c12 (centres unmarked) [4.016]
[1]
  MIC: ≤ 0.5 µg/mL
[2]
  MIC: 1 µg/mL (≈ 2.3 µM)

## CNc1cc(F)cc2c1[nH]c1nc(Oc3cncnc3)nc(N3CCC(C4(N)CC4)C3)c12 (centres unmarked) [4.017]
[1]
  MIC: ≤ 0.5 µg/mL
[2]
  MIC: ≤ 0.5 µg/mL

## CNc1cc(F)cc2c1[nH]c1nc(Oc3cncnc3)nc(N3CCC4CNC4C3)c12 (centres unmarked) [4.018]
[1]
  MIC: ≤ 0.5 µg/mL
[2]
  MIC: ≤ 0.5 µg/mL

## CNc1cc(F)cc2c1[nH]c1nc(Oc3cncnc3)nc(N3C4CCC3C(N)C4)c12 (centres unmarked) [4.019]
[1]
  MIC: 2 µg/mL (≈ 4.76 µM)
[2]
  MIC: 16 µg/mL (≈ 38.1 µM)

## CNc1cc(F)cc2c1[nH]c1nc(Oc3cncnc3)nc(N3C[C@H]4CCN[C@H]4C3)c12 [4.020]
[1]
  MIC: ≤ 0.5 µg/mL
[2]
  MIC: ≤ 0.5 µg/mL

## CNc1cc(F)cc2c1[nH]c1nc(Oc3cncnc3)nc(N3C[C@H]4CC[C@@H](CN)[C@H]4C3)c12 [4.021]
[1]
  MIC: ≤ 0.5 µg/mL
[2]
  MIC: 2 µg/mL (≈ 4.46 µM)

## CNc1cc(F)cc2c1[nH]c1nc(Oc3cncnc3)nc(N3CC4C[C@@H]3CN4)c12 [4.022]
[1]
  MIC: 8 µg/mL (≈ 19.7 µM)
[2]
  MIC: 16 µg/mL (≈ 39.4 µM)

## CNc1cc(F)cc2c1[nH]c1nc(Oc3cncnc3)nc(N3CC(C)C(CN)C3)c12 (centres unmarked) [4.023]
[1]
  MIC Sa: ≤0.5 µg/mL
[2]
  MIC Ec: 1 µg/mL (≈ 2.37 µM)

## CNc1cc(F)cc2c1[nH]c1nc(Oc3cncnc3)nc(N3CCCC(C)(N)C3)c12 (centres unmarked) [4.024]
[1]
  MIC: ≤ 0.5 µg/mL
[2]
  MIC: 2 µg/mL (≈ 4.73 µM)

## CNc1cc(F)cc2c1[nH]c1nc(Oc3cncnc3)nc(N3C4CCC3CC(N)C4)c12 (centres unmarked) [4.025]
[1]
  MIC: ≤ 0.5 µg/mL
[2]
  MIC: 2 µg/mL (≈ 4.6 µM)

## CNc1cc(F)cc2c1[nH]c1nc(Oc3cncnc3)nc(N3CC4CC(N)C4C3)c12 (centres unmarked) [4.026]
[1]
  MIC: ≤ 0.5 µg/mL
[2]
  MIC: ≤ 0.5 µg/mL

## CNc1cc(F)cc2c1[nH]c1nc(Oc3cncnc3)nc(N3CC4CC4(CN)C3)c12 (centres unmarked) [4.027]
[1]
  MIC: ≤ 0.5 µg/mL
[2]
  MIC: 1 µg/mL (≈ 2.38 µM)

## CNc1cc(F)cc2c1[nH]c1nc(Oc3cncnc3)nc(N3CC4C[C@@H](N)C4C3)c12 (some centres unmarked) [4.028]
[1]
  MIC: ≤ 0.5 µg/mL
[2]
  MIC: ≤ 0.5 µg/mL

## CNc1cc(F)cc2c1[nH]c1nc(Oc3cncnc3)nc(N3C[C@H](N)C[C@H]3C)c12 [4.029]
[1]
  MIC: 4 µg/mL (≈ 9.79 µM)
[2]
  MIC: 16 µg/mL (≈ 39.2 µM)

## CNc1cc(F)cc2c1[nH]c1nc(Oc3cncnc3)nc(N3CC4CC3C4CN)c12 (centres unmarked) [4.030]
[1]
  MIC Sa: 2 µg/mL (≈ 4.76 µM)
[2]
  MIC Ec: 16 µg/mL (≈ 38.1 µM)

## CNc1cc(F)cc2c1[nH]c1nc(Oc3cncnc3)ncc12 [4.031]
[1]
  MIC: 2 µg/mL (≈ 6.45 µM)
[2]
  MIC: > 16 µg/mL

## CNc1cc(F)cc2c1[nH]c1nc(Oc3cncnc3)nc(N3CC4CCC(N)C3C4)c12 (centres unmarked) [4.032]
[1]
  MIC: ≤ 0.5 µg/mL
[2]
  MIC: 2 µg/mL (≈ 4.6 µM)

## CNc1cc(F)cc2c1[nH]c1nc(Oc3cncnc3)nc(N3CCC4(CCNC4)C3)c12 (centres unmarked) [4.033]
[1]
  MIC: ≤ 0.5 µg/mL
[2]
  MIC: 4 µg/mL (≈ 9.21 µM)

## CNc1cc(F)cc2c1[nH]c1nc(Oc3cncnc3)nc(N3C[C@H]4C[C@@H]3C[C@H]4N)c12 [4.034]
[1]
  MIC: ≤ 0.5 µg/mL
[2]
  MIC: ≤ 0.5 µg/mL

## CNc1cc(F)cc2c1[nH]c1nc(Oc3cnc4cccnc4c3)nc(N3CC4CC4(N)C3)c12 (centres unmarked) [4.036]
[1]
  MIC: ≤ 0.5 µg/mL
[2]
  MIC: ≤ 0.5 µg/mL

## CNc1cc(F)cc2c1[nH]c1nc(Oc3cnc4cccnc4c3)nc(N3C[C@H](N)C4(CC4)C3)c12 [4.038]
[1]
  MIC: ≤ 0.5 µg/mL
[2]
  MIC: ≤ 0.5 µg/mL

## CNc1cc(F)cc2c1[nH]c1nc(Oc3cnc4cccnc4c3)nc(N3C[C@@H]4[C@H](C3)[C@@]4(N)C(N)=O)c12 [4.039]
[1]
  MIC: ≤ 0.5 µg/mL
[2]
  MIC: 2 µg/mL (≈ 4 µM)
